Data from US10183946B2, “Triazolo[4,5-D]pyrimidines” (Hoffmann—La Roche Inc., priority 2014, dated 2019).
Like-named read-outs stand apart in the source and are kept apart here.

Key:
[1] = target: human CB1 receptors (Homo sapiens (Human), UniProt P21554); experiment: cAMP assay, CHO cells expressing human CB1 receptors; format: cell-based
Experimental: (§1) CHO cells expressing human CB1 or CB2 receptors are seeded 17-24 hours prior to the experiment 50.000 cells per well in a black 96 well plate with flat clear bottom (Corning Costar #3904) in DMEM (Invitrogen No. 31331), 1×HT supplement, with 10% fetal calf serum and incubated at 5% CO2 and 37° C. in a humidified incubator. The growth medium was exchanged with Krebs Ringer Bicarbonate buffer with 1 mM IBMX and incubated at 30° C. for 30 min. Compounds were added to a final assay volume of 100 μl and incubated for 30 min at 30° C. Using the cAMP-Nano-TRF detection kit the assay (Roche Diagnostics) was stopped by the addition of 50 μl lysis reagent (Tris, NaCl, 1.5% Triton X100, 2.5% NP40, 10% NaN3) and 50 μl detection solutions (20 μM mAb Alexa700-cAMP 1:1, and 48 μM Ruthenium-2-AHA-cAMP) and shaken for 2 h at room temperature. The time-resolved energy transfer is measured by a TRF reader (Evotec Technologies GmbH), equipped with a ND:YAG laser as excitation source. The plate is measured twice with the excitation at 355 nm and at the emission with a delay of 100 ns and a gate of 100 ns, total exposure time 10 s at 730 (bandwidth 30 nm) or 645 nm (bandwidth 75 nm), respectively. The FRET signal is calculated as follows: FRET=T730-Alexa730-P(T645-B645) with P=Ru730-B730/Ru645-B645, where T730 is the test well measured at 730 nM, T645 is the test well measured at 645 nm, B730 and B645 are the buffer controls at 730 nm and 645 nm, respectively. cAMP content is determined from the function of a standard curve spanning from 10 μM to 0.13 nM cAMP.
(§2) EC50 values were determined using Activity Base analysis (ID Business Solution, Limited). The EC50 values for a wide range of cannabinoid agonists generated from this assay were in agreement with the values published in the scientific literature.

[2] = target: human CB2 receptors (Homo sapiens (Human), UniProt P34972); experiment: cAMP assay, CHO cells expressing human CB2 receptors; format: cell-based; settings: functional cAMP assay, read-out: CB2 hcAMP EC50
Experimental: as §1, §2

[3] = functional cAMP assay, CHO cells expressing human CB1, read-out: CB1 hcAMP EC50

human CB2 receptors, sequence (P34972 whole entry): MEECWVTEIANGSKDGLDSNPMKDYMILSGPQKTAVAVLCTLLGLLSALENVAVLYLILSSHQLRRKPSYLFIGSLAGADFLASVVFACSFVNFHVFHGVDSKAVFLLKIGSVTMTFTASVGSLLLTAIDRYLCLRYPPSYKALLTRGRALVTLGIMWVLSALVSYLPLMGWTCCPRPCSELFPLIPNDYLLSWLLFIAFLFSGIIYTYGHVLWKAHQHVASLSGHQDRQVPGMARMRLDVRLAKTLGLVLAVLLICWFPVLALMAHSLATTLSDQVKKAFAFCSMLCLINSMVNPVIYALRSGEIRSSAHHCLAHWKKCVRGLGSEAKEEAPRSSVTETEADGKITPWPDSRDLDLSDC
human CB1 receptors, sequence (P21554 whole entry): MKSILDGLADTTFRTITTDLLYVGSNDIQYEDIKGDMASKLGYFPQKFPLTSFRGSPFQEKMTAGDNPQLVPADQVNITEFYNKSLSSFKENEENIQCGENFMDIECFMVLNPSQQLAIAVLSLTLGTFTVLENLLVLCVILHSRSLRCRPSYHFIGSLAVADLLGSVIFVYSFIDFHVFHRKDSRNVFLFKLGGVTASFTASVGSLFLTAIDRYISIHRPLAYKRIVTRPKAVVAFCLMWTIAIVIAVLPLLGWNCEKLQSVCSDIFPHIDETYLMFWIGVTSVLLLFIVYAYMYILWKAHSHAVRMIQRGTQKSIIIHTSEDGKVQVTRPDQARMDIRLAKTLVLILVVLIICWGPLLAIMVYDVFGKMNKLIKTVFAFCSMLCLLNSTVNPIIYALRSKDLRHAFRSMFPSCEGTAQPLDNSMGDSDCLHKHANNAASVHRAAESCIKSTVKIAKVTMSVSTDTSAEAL

With `Cn1nnnc1Cn1nnc2c(-c3cnnn3Cc3ccccc3)nc(C(C)(C)C)nc21` [Example 29, 7-(3-benzyltriazol-4-yl)-5-tert-butyl-3-[(1-methyltetrazol-5-yl)methyl]triazolo[4,5-d]pyrimidine] as the molecule, how does the EC50 [1, 3] read?
The EC50 was > 10 µM.

And the EC50 [2]?
Its EC50 is 0.0166 µM.

What does the source list for `CC(C)(C)c1nc(C2(O)CCC2)c2nnn(Cc3ccccc3)c2n1` [Example 31, 1-(3-Benzyl-5-tert-butyltriazolo[4,5-d]pyrimidin-7-yl)cyclobutan-1-ol]?
EC50 [1, 3]: 0.645 µM; EC50 [2]: 0.0045 µM

`CC(C)(C)c1nc(C2(F)CCC2)c2nnn(Cc3ccccc3)c2n1` [Example 32, 3-Benzyl-5-tert-butyl-7-(1-fluorocyclobutyl)triazolo[4,5-d]pyrimidine] was tested. Which EC50 [1, 3] did it give?
Its EC50 is > 10 µM.

And the EC50 [2]?
The EC50 was 0.024 µM.

`CC(C)(C)c1nc(C2(O)CCC2)c2nnn(Cc3ccccc3Cl)c2n1` [Example 33, 1-[5-tert-Butyl-3-[(2-chlorophenyl)methyl]triazolo[4,5-d]pyrimidin-7-yl]cyclobutanol] was tested. Which EC50 [1, 3] did it give?
Its EC50 is > 10 µM.

What about the EC50 [2] of the same molecule?
Its EC50 is 0.233 µM.

What does the source list for `CC(C)(C)c1nc(C2(O)CCCC2)c2nnn(Cc3ccccc3Cl)c2n1` [Example 34, 1-[5-tert-Butyl-3-[(2-chlorophenyl)methyl]triazolo[4,5-d]pyrimidin-7-yl]cyclopentanol]?
EC50 [1, 3]: > 10 µM; EC50 [2]: 0.0353 µM

For `CC(C)(C)c1nc(C2(O)CCCCC2)c2nnn(Cc3ccccc3Cl)c2n1` [Example 35, 1-[5-tert-Butyl-3-[(2-chlorophenyl)methyl]triazolo[4,5-d]pyrimidin-7-yl]cyclohexanol], which EC50 [1, 3] is on record?
The EC50 was > 10 µM.

And the EC50 [2]?
Its EC50 is 0.172 µM.

Which EC50 [1, 3] does the source give for `CC(C)(C)c1nc(C2(O)CCCCCC2)c2nnn(Cc3ccccc3Cl)c2n1` [Example 36, 1-[5-tert-Butyl-3-[(2-chlorophenyl)methyl]triazolo[4,5-d]pyrimidin-7-yl]cycloheptanol] here?
Its EC50 is > 10 µM.

And the EC50 [2]?
The EC50 was 0.0173 µM.

Which EC50 [1] does the source give for `CC(C)(C)c1nc(C2(O)CCCCCCC2)c2nnn(Cc3ccccc3Cl)c2n1` [Example 37, 1-[5-tert-Butyl-3-[(2-chlorophenyl)methyl]triazolo[4,5-d]pyrimidin-7-yl]cyclooctanol] here?
The EC50 was > 10 µM.

And the EC50 [2]?
The EC50 was 0.126 µM.

Which results are given for `CCC(O)(CC)c1nc(C(C)(C)C)nc2c1nnn2Cc1ccccc1Cl` [Example 38, 3-[5-tert-Butyl-3-[(2-chlorophenyl)methyl]triazolo[4,5-d]pyrimidin-7-yl]pentan-3-ol]?
EC50 [1, 3]: > 10 µM; EC50 [2]: 0.0453 µM

What does the source list for `CC(C)(C)c1nc(C2(O)CSC2)c2nnn(Cc3ccccc3Cl)c2n1` [Example 39, 3-[5-tert-Butyl-3-[(2-chlorophenyl)methyl]triazolo[4,5-d]pyrimidin-7-yl]thietan-3-ol]?
EC50 [1, 3]: > 10 µM; EC50 [2]: 0.168 µM

Which results are given for `CC(C)(C)c1nc2c(nnn2Cc2ccccc2Cl)c([C@]2(O)C[C@H](C(F)F)C2)n1` [Example 40, Trans-1-[5-tert-Butyl-3-[(2-chlorophenyl)methyl]triazolo[4,5-d]pyrimidin-7-yl]-3-(difluoromethyl)cyclobutanol]?
EC50 [1, 3]: 1.81 µM; EC50 [2]: 0.0098 µM

What does the source list for `CC(C)(C)c1nc2c(nnn2Cc2ccccc2Cl)c([C@]2(O)C[C@@H](C(F)F)C2)n1` [Example 41, Cis-1-[5-tert-Butyl-3-[(2-chlorophenyl)methyl]triazolo[4,5-d]pyrimidin-7-yl]-3-(difluoromethyl)cyclobutanol]?
EC50 [1, 3]: > 10 µM; EC50 [2]: 0.0305 µM

How did the EC50 [1, 3] turn out when `CC(C)(C)c1nc(C2(O)C[S+]([O-])C2)c2nnn(Cc3ccccc3Cl)c2n1` (stereo not shown) [Example 42, 3-[5-tert-Butyl-3-[(2-chlorophenyl)methyl]triazolo[4,5-d]pyrimidin-7-yl]-1-oxo-thietan-3-ol] was run?
Its EC50 is > 10 µM.

And the EC50 [2]?
Its EC50 is 0.11 µM.

How did the EC50 [1, 3] turn out when `CC(C)(C)c1nc(C2(CF)CC2)c2nnn(Cc3ccccc3Cl)c2n1` [Example 43, 5-tert-Butyl-3-[(2-chlorophenyl)methyl]-7-[1-(fluoromethyl)cyclopropyl]triazolo[4,5-d]pyrimidine] was run?
The EC50 was > 10 µM.

And the EC50 [2]?
Its EC50 is 0.903 µM.

With `CC(C)(C)c1nc(C2=CCCC2)c2nnn(Cc3ccccc3Cl)c2n1` [Example 44, 5-tert-Butyl-3-[(2-chlorophenyl)methyl]-7-(cyclopenten-1-yl)triazolo[4,5-d]pyrimidine] as the molecule, how does the EC50 [1, 3] read?
Its EC50 is > 10 µM.

And the EC50 [2]?
The EC50 was 0.004 µM.

For `CC(C)(C)c1nc(C2CCCC2)c2nnn(Cc3ccccc3Cl)c2n1` [Example 45a, 5-tert-Butyl-3-[(2-chlorophenyl)methyl]-7-cyclopentyl-triazolo[4,5-d]pyrimidine], which EC50 [1, 3] is on record?
The EC50 was > 10 µM.

And the EC50 [2]?
The EC50 was 0.0944 µM.

What does the source list for `CC(C)(C)c1nc(C2CCCC2)c2nnn(Cc3ccccc3)c2n1` [Example 45b, 3-benzyl-5-tert-butyl-7-cyclopentyl-triazolo[4,5-d]pyrimidine]?
EC50 [1, 3]: > 10 µM; EC50 [2]: 0.03 µM
